Patent US8268848B2, “Cyclopropane compound” (Eisai R&D Management Co., Ltd., priority 2010, dated 2012)
Read-outs that look alike come from different tables or passages of the source.

Assays:
OX1 = molecular target: T1, OX1 (Homo sapiens, UniProt O43613); experiment: Measurement of orexin receptor-binding ability ([125I]-OX-A, cell membranes, OX1); design: expressed in transfected cells; host or cells: CHO cells (membrane preparation)
T1 sequence (O43613 1-425): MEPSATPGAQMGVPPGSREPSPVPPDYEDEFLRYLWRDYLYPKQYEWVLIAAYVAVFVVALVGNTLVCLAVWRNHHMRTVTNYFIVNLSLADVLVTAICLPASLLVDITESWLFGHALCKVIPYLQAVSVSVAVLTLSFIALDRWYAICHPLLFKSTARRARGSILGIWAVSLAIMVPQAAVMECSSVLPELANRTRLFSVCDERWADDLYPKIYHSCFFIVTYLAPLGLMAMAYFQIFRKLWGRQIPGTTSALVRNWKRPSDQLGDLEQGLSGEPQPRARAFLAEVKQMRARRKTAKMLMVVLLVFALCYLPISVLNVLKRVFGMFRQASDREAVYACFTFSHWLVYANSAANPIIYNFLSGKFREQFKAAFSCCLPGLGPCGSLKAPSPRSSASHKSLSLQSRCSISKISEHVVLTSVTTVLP
Description: (§1) 1. Measurement of Orexin Receptor-Binding Ability
(§2) The assay was carried out using a 96-well Wheat Germ Agglutinin Flash Plate (PerkinElmer). The volume in a single assay well was 100 ul, and the composition of the reaction solution was as follows:
(§3) 25 mM HEPES (pH 7.5), 1 mM CaCl2, 4.5 mM MgCl2, 0.5% BSA (bovine serum albumin), 0.1% sodium azide, 0.05% Tween-20, and 0.2% DMSO.
(§4) Cell membranes were prepared from recombinant CHO cells that expressed OX2 or OX1. The cell membranes were used in an amount of 5 μg protein/assay. […] Finally, the radioactivity of each well was measured using a scintillation counter (TopCount, PerkinElmer).

OX2 = molecular target: T2, OX2 (Homo sapiens, UniProt O43614); experiment: Measurement of orexin receptor-binding ability ([125I]-OX-A, cell membranes, OX2); design: expressed in transfected cells; host or cells: CHO cells (membrane preparation); details: membranes of recombinant CHO cells expressing OX2, 0.2 nM [125I]-OX-A
T2 sequence (O43614 1-444): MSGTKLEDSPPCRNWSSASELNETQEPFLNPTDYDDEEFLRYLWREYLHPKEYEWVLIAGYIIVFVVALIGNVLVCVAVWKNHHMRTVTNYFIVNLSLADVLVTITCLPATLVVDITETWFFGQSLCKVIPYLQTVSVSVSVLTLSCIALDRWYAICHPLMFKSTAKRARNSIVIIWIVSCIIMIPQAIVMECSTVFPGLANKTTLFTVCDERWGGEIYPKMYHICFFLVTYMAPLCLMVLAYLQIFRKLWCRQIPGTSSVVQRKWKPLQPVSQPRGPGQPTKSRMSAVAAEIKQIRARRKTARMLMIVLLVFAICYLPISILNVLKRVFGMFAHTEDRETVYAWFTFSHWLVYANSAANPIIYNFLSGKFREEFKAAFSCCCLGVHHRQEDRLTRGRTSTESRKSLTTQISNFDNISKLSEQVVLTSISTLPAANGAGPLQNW
Description: as §1, §2, §3, §4

[1] = membranes of recombinant CHO cells expressing OX1, 0.2 nM [125I]-OX-A, read-out: OX1 (IC50)

Structure (SMILES) | IC50 (OX1; [1]) [nM] | IC50 (OX2; read-out: OX2 (IC50)) [nM] | IC50 (OX1) [nM] | IC50 (OX2; OX2 (IC50) nM) [nM]
COCc1nc(C)ncc1OC[C@@]1(c2cccc(F)c2)C[C@H]1C(=O)Nc1ccc(F)c(F)c1 [Example 194, (1R,2S)-N-(3,4-difluorophenyl)-2-(3-fluorophenyl)-2-{[(4-methoxymethyl-2-methylpyrimidin-5-yl)oxy]methyl}cyclopropanecarboxamide] | 7 | 3 |  | 
Cc1cccc(NC(=O)[C@@H]2C[C@@]2(COc2cnc(C)nc2C)c2ccccc2)n1 [Example 70] |  |  | 704 | 41
Cc1ncc(OC[C@@]2(c3cccc(C#N)c3)C[C@H]2C(=O)Nc2cc(C)c(F)cn2)c(C)n1 [Example 117, (1R,2S)-2-(3-cyanophenyl)-2-{[(2,4-dimethylpyrimidin-5-yl)oxy]methyl}-N-(5-fluoro-4-methylpyridin-2-yl)cyclopropanecarboxamide] | 19 | 4 |  | 
Cc1ncc(N(C)C[C@@]2(c3cccc(F)c3)C[C@H]2C(=O)Nc2ccc(F)cc2)c(C)n1 [Example 294] | > 200 | 14 |  | 
COCc1nc(C)ncc1OC[C@@]1(c2cccc(F)c2)C[C@H]1C(=O)Nc1ccccn1 [Example 193, (1R,2S)-2-(3-fluorophenyl)-2-{[(4-methoxymethyl-2-methylpyrimidin-5-yl)oxy]methyl}-N-(pyridin-2-yl)cyclopropanecarboxamide] |  |  | 36 | 8
COc1ccc([C@]2(COc3cnc(C)nc3C)C[C@H]2C(=O)Nc2ccc(F)cn2)cc1F [Example 322, (1R,2S)-2-{[(2,4-dimethylpyrimidin-5-yl)oxy]methyl}-2-(3-fluoro-4-methoxyphenyl)-N-(5-fluoropyridin-2-yl)cyclopropanecarboxamide] |  |  | 30 | 7
Cc1ncc(OCC2(c3ccccc3C)CC2C(=O)Nc2ccc(F)cn2)c(C)n1 (centres unmarked) [Example 179] |  |  | 167 | 29
Cc1ncc(OC[C@@]2(c3cccc(F)c3)C[C@H]2C(=O)Nc2ccc(I)cn2)c(C)n1 [Example 280] |  |  | 24 | 21
Cc1ncc(OC[C@@]2(c3cccc(F)c3)C[C@H]2C(=O)Nc2ccc(F)c(F)c2)c(C)n1 [Example 84, (1R,2S)-N-(3,4-difluorophenyl)-2-{[(2,4-dimethylpyrimidin-5-yl)oxy]methyl}-2-(3-fluorophenyl)cyclopropanecarboxamide] |  |  | 6 | 3
COCc1nc(C)ncc1OC[C@@]1(c2cccc(F)c2)C[C@H]1C(=O)Nc1ccc(F)cc1 [Example 192, (1R,2S)-2-(3-fluorophenyl)-N-(4-fluorophenyl)-2-{[(4-methoxymethyl-2-methylpyrimidin-5-yl)oxy]methyl}cyclopropanecarboxamide] | 12 | 5 |  | 
Cc1ncc(CC[C@@]2(c3ccccc3)C[C@H]2C(=O)Nc2cc(C)c(F)cn2)c(C)n1 [Example 292, (1R,2R)-2-[2-(2,4-dimethylpyrimidin-5-yl)ethyl]-N-(5-fluoro-4-methylpyridin-2-yl)-2-phenylcyclopropanecarboxamide] | 240 | 34 |  | 
Cc1ncc(OCC2(c3cccnc3)CC2C(=O)Nc2ccc(Cl)cn2)c(C)n1 (centres unmarked) [Example 260, N-(5-chloropyridin-2-yl)-2-{[(2,4-dimethylpyrimidin-5-yl)oxy]methyl}-2-pyridin-3-ylcyclopropanecarboxamide] | > 2000 | 70 |  | 
COCc1nc(C)ncc1OC[C@@]1(c2ccc(F)cc2)C[C@H]1C(=O)Nc1ccc(F)cn1 [Example 202, (1R,2S)-2-(4-fluorophenyl)-N-(5-fluoropyridin-2-yl)-2-{[(4-methoxymethyl-2-methylpyrimidin-5-yl)oxy]methyl}cyclopropanecarboxamide] |  |  | 14 | 2
COc1cc(NC(=O)[C@@H]2C[C@@]2(COc2cnc(C)nc2C)c2ccc(F)cc2)ncc1F [Example 104] | 4 | 4.3 |  | 
Cc1nc(C)[n+]([O-])cc1OC[C@@]1(c2cccc(F)c2)C[C@H]1C(=O)Nc1ccc(F)cn1 [Example 284] |  |  | 112 | 6
CCc1nc(C)ncc1OC[C@@]1(c2ccc(F)cc2)C[C@H]1C(=O)Nc1ccccn1 [Example 245, (1R,2S)-2-{[(4-ethyl-2-methylpyrimidin-5-yl)oxy]methyl}-2-(4-fluorophenyl)-N-(pyridin-2-yl)cyclopropanecarboxamide] |  |  | 64 | 10
Cc1ncc(OC[C@@]2(c3cc(F)cc(F)c3)C[C@H]2C(=O)Nc2ccc(F)cn2)c(C)n1 [Example 133, (1R,2S)-2-(3,5-difluorophenyl)-2-{[(2,4-dimethylpyrimidin-5-yl)oxy]methyl}-N-(5-fluoropyridin-2-yl)cyclopropanecarboxamide] |  |  | 7 | 3

Structure (SMILES) | IC50 (OX1; [1]) [nM] | IC50 (OX2; read-out: OX2 (IC50)) [nM] | IC50 (OX1) [nM] | IC50 (OX2; OX2 (IC50) nM) [nM]
Cc1ncc(OC[C@@]2(c3ccccc3)C[C@H]2C(=O)Nc2ccc(F)c(Cl)c2)c(C)n1 [Example 32, (1R,2S)-N-(3-chloro-4-fluorophenyl)-2-{[(2,4-dimethylpyrimidin-5-yl)oxy]methyl}-2-phenylcyclopropanecarboxamide] | 15 | 3.5 |  | 
COCc1nc(C)ncc1OC[C@@]1(c2ccc(F)c(F)c2)C[C@H]1C(=O)Nc1ccccn1 [Example 211, (1R,2S)-2-(3,4-difluorophenyl)-2-{[(4-methoxymethyl-2-methylpyrimidin-5-yl)oxy]methyl}-N-(pyridin-2-yl)cyclopropanecarboxamide] |  |  | 20 | 4
COCc1nc(C)ncc1OC[C@@]1(c2cccc(F)c2)C[C@H]1C(=O)Nc1ccc(Cl)cn1 [Example 198, (1R,2S)-N-(5-chloropyridin-2-yl)-2-(3-fluorophenyl)-2-{[(4-methoxymethyl-2-methylpyrimidin-5-yl)oxy]methyl}cyclopropanecarboxamide] |  |  | 5 | 4
Cc1ncc(OC[C@@]2(c3cccc(F)c3)C[C@H]2C(=O)Nc2ccc(F)cn2)c(CO)n1 [Example 286, (1R,2S)-2-(3-fluorophenyl)-N-(5-fluoropyridin-2-yl)-2-{[(4-hydroxymethyl-2-methylpyrimidin-5-yl)oxy]methyl}-2-(3-fluorophenyl)cyclopropanecarboxamide] |  |  | > 200 | 4.5
Cc1ncc(OCC2(c3ccccc3F)CC2C(=O)Nc2cccnc2)c(C)n1 (centres unmarked) [Example 276] |  |  | 3210 | 76
Cc1ncc(N(C)C[C@@]2(c3cccc(F)c3)C[C@H]2C(=O)Nc2cc(C)c(F)cn2)c(C)n1 [Example 293] | 79 | 9 |  | 
Cc1ncc(OCC2(c3ccccc3C)CC2C(=O)Nc2ccc(C#N)cn2)c(C)n1 (centres unmarked) [Example 178] |  |  | 769 | 
COCc1nc(C)ncc1OC[C@@]1(c2ccc(F)cc2)C[C@H]1C(=O)Nc1ccccn1 [Example 206] |  | 27 |  | 
COCc1nc(C)ncc1OC[C@@]1(c2ccccc2)C[C@H]1C(=O)Nc1ccc(F)cc1F [Example 146] |  | 37 |  | 
Cc1ncc(OC[C@@]2(c3cc(F)cc(F)c3)C[C@H]2c2nc3ncc(Cl)cc3[nH]2)c(C)n1 [Example 307] |  | 33 |  | 
CCc1nc(C)ncc1OC[C@@]1(c2cccc(F)c2)C[C@H]1c1nc2cnccc2[nH]1 [Example 309] |  | 10 |  | 
COc1cc(F)cc([C@]2(COc3cnc(C)nc3C)C[C@H]2C(=O)Nc2ccc(Cl)cn2)c1 [Example 255] |  | 27 |  | 
COc1cc(F)cc(C2(COc3cnc(C)nc3C)CC2C(=O)Nc2ccccn2)c1 (centres unmarked) [Example 251] |  | 30 |  | 
COc1cc([C@]2(COc3cnc(C)nc3C)C[C@H]2C(=O)Nc2ccccn2)ccc1F [Example 259] |  | > 60 |  | 
COCc1nc(C)ncc1OC[C@@]1(c2ccc(F)c(F)c2)C[C@H]1C(=O)Nc1ccc(F)cc1F [Example 216, (1R,2S)-N-(2,4-difluorophenyl)-2-(3,4-difluorophenyl)-2-{[(4-methoxymethyl-2-methylpyrimidin-5-yl)oxy]methyl}cyclopropanecarboxamide] |  | 7 |  | 
Cc1ncc(OC[C@@]2(c3ccccc3)C[C@H]2c2nc3cnccc3[nH]2)c(C)n1 [Example 304] |  | 90 |  | 
